Series [1] has as its target T1, human PTHR1 (RG conformation) (Homo sapiens, UniProt Q03431).
T1 construct: expressed in transfected cells; host or cells: COS-7 cells (transient co-transfection; membranes)
T1 sequence (Q03431 27-593): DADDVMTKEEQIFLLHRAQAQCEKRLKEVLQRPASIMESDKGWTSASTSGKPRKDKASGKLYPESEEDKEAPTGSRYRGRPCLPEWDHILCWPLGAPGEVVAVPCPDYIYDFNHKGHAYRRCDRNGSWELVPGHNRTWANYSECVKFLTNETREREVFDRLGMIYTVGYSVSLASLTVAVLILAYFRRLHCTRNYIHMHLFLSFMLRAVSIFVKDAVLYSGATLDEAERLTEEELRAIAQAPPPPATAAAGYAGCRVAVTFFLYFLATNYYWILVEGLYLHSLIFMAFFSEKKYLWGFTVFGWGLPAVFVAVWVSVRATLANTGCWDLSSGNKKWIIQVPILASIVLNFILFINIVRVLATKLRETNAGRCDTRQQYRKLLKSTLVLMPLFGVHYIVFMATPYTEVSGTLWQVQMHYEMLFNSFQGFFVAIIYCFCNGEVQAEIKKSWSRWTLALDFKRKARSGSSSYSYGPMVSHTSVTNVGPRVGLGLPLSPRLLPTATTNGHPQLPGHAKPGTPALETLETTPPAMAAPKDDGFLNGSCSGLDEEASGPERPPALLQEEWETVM
Briefly: Competition binding to the RG conformation of PTHR1.

Series [2] concerns the target T2, human PTHR1 (R^0 conformation) (Homo sapiens, UniProt Q03431).
T2 construct: expressed in transfected cells; host or cells: COS-7 cells (transient transfection; membranes)
T2 sequence (Q03431 27-593): T1 sequence (Q03431 27-593)
As to the kind of experiment: Competition binding to the R^0 conformation of PTHR1.

Another series deals with T3, human PTHR1 (Homo sapiens, UniProt Q03431).
T3 construct: expressed in transfected cells
T3 sequence (Q03431 27-593): T1 sequence (Q03431 27-593)
As to the kind of experiment: GloSensor cAMP signaling assay in GP‐2.3 cells. Format: cell-based. As to the method:
GP‐2.3 cells, an HEK‐293 cell‐ (ATCC CRL‐1573) derived cell line that stably expresses the luciferase‐based pGloSensor‐22F (GloSensor) cAMP reporter plasmid (Promega Corp., […], USA) along with the human PTHR1, were cultured in DMEM (Thermo Fisher Scientific, Waltham, MA, USA) supplemented with FBS (10%). Cells were seeded into white 96‐well plates for GloSensor cAMP assays, and used for assay 2 to 3 days after the monolayer became confluent.16 UGS‐56 cells were derived from the UMR106 rat osteoblastic cell line by stably transfecting the cells to express the GloSensor‐cAMP reporter. B64 cells are a derivative of the porcine kidney cell line, LLC‐PK1 that stably expresses the human PTHR1. COS‐7 cells (ATCC CRL‐1661) were seeded into 10‐cm dishes and transiently transfected to express the human PTHR1 with or without a high‐affinity, negative‐dominant Gαs subunit; 2 days after transfection, the cells were harvested for membrane preparations.13 All transfections were performed using the Fugene HD reagent (Promega Corp.).
Changes in cAMP levels were assessed in intact GP‐2.3 or UGS‐56 cells via the (GloSensor) cAMP reporter. The intact cells in white 96‐well plates were preloaded with luciferin in CO2‐independent culture media (Thermo Fisher) for 20 min at room temperature, then treated with a test ligand diluted in the same media and placed into a Envision plate reader (PerkinElmer, Waltham, MA, USA) for an additional 30 min, during which time cAMP‐dependent luminescence was measured at 2‐min intervals (ligand‐on phase). […] For washout responses, the cells were treated as above, and after the ligand‐on phase, the plate was removed from the plate reader, the cells were rinsed with media, then fresh media containing only luciferin was added and luminescence was measured for an additional 90 min (washout phase). EC50 values were determined using the 4‐parameter sigmoidal dose–response equation in Prism 8.0 (GraphPad Software, Inc., La Jolla, CA, USA).
The cells were then removed from the plate reader, rinsed twice with media to remove unbound ligand, and then fresh media containing luciferin but lacking ligand was added and luminescence was assessed for additional 90 min (Ligand wash‐out phase). Data are means (± SEM) of four experiments, each performed in triplicate. Figure S2. […] Panels A‐C represent three separate experiments. […] Figure S3. […] Serum and urine samples obtained from the TPTX and sham control rats of the two‐week daily‐administration experiment shown in Figure 4 were analyzed by ELISA for the indicated markers. A) serum 1,25(OH)2Vitamin‐D3. B) urinary deoxypyridinoline (DpD)/Cre. C) serum FGF23. […] Serum and urine samples obtained from the TPTX and sham control rats of the two‐week daily‐administration experiment shown in Figure 4 were analyzed for total inorganic phosphorus (Pi). […] Figure S5. […] B) The same peptides were assessed at a concentration of 3 nM for the capacity to stimulate cAMP formation in HKRK‐B64 cells (LLC‐PK1 cells stably expressing the hPTHR1, cAMP measured by RIA). […] Data in A and B are means (±SEM) of three experiments, each performed in triplicate or quadruplicate. […] D) The same analogs as in C were assessed at a 3.0 nM concentration for the capacity to stimulate cAMP formation in HKRK‐B64 cells. Data are means (±SEM) of three experiments, each performed in duplicate. […] Data are means (±SEM) of duplicate determinations of a single experiment representative of three others. Click here for additional data file.

Series [3] concerns thyroparathyroidectomized (TPTX) rats. As to the kind of experiment: Repeated daily administration in TPTX rats (11‐day treatment, 12‐day study). Type of series: in vivo, rat. As to the method: TPTX rats were injected i.v. or s.c. with vehicle or vehicle containing a PTH peptide, or orally treated once daily with vehicle (medium‐chain triglyceride; Chugai Pharma Manufacturing, Tokyo, Japan) or vehicle containing alfacalcidol (Chugai Pharma Manufacturing) for 11 days. Blood samples were obtained from the tail or jugular vein immediately before and at times after injection. Urine samples at 0 to 8 hours or 8 to 24 hours, were collected in metabolic cages. sCa and uCa, serum inorganic phosphorus (sPi) and urinary phosphorus (uPi), and creatinine (uCre) were measured with an automatic analyzer (7180; Hitachi, Ltd, Chiyoda, Tokyo, Japan). Urinary deoxypyridinoline (uDpD) was measured using a Metra DPD EIA kit (DS Pharma Biomedical, Osaka, Japan), and the data were normalized to the uCre concentrations. Serum FGF23 was measured using FGF23 ELISA assay (Immunodiagnostik AG, Bensheim, Germany). Serum 1,25‐dihydroxyvitamin D [1,25(OH)2D3] levels were determined by a ELISA immunoassay (Immunodiagnostic System Ltd, Bolden, UK).
Figure 4 Effects of 11‐day treatment (12‐day study) with M‐PTH/PTHrP or alfacalcidol on serum calcium (sCa) in thyroparathyroidectomized (TPTX) rats. TPTX rats were treated for 11 days with daily s.c. injection of either vehicle or M‐PTH/PTHrP, or with daily oral alfacalcidol at the indicated doses, and sham‐surgery control rats were s.c. injected daily with vehicle. The levels of Ca in serum and urine were assessed. Blood samples were collected from the jugular vein at 8 hours (A) and at 24 hours (B) after the last treatment administration, and assessed for total sCa. Total urine was collected in metabolic cages over the time intervals of 0 to 8 hours (C), and 8 to 24 hours (D) and assessed for total urinary Ca. Data are means ± SEM; n = 6 or 5 (2.0 and 4.0 nmol/kg of M‐PTH/PTHrP); *p < 0.05 M‐PTH/PTHrP versus TPTX‐vehicle; #p < 0.05 TPTX vehicle versus sham.
Supplementary file JBM4-4-e10367-s001.pdf: Figure S1 PTH ligand‐induced cAMP‐signaling responses in GP‐2.3 cells Time course of the cAMP‐dependent luminescence response measured at 2‐minute intervals in the presence of each ligand at 10 nM (Ligand on‐phase) and B) Time course of the cAMP‐dependent luminescence response measured at 2‐minute intervals after washout of unbound ligand (Ligand wash‐out phase). GP‐2.3 cells preloaded with luciferin were treated with a concentration of PTH ligand at a concentration of 10 nM for 30 min, and cAMP‐dependent luminescence was measured at two‐minute intervals (ligand‐on phase). The cells were then removed from the plate reader, rinsed twice with media to remove unbound ligand, and then fresh media containing luciferin but lacking ligand was added and luminescence was assessed for additional 90 min (Ligand wash‐out phase). Data are means (± SEM) of four experiments, each performed in triplicate. Figure S2. In vivo calcemic actions of M‐PTH/PTHrP hybrid analogs in normal rats. The indicated M‐PTH/PTHrP hybrid analogs (sequences are shown in Figure 1) along with PTH(1–34) and PTHrP(1–36) controls, were administered at the indicated doses by i.v. injection, and at the indicated time points blood was collected from the tail vein and measured for ionized calcium (Ca^2+). Panels A‐C represent three separate experiments. Data are means ± SEM; n = 6 or 4 (80 nmol/kg of M‐PTH(1‐11)/PTHrP(12–36), M‐PTH(1‐14)/PTHrP(12–36), M‐PTH(1‐17)/PTHrP(18–36) and 1.25 nmol/kg of M‐PTH(1–30)/PTHrP(31–36)). *p < 0.05 versus Vehicle. Figure S3. Effects of 11 days treatment (12 days study) of M‐PTH/PTHrP on serum 1,25(OH) 2 Vitamin‐D3, urinary deoxypyridinoline (Dpd) and serum FGF23 in TPTX rats. Serum and urine samples obtained from the TPTX and sham control rats of the two‐week daily‐administration experiment shown in Figure 4 were analyzed by ELISA for the indicated markers. A) serum 1,25(OH)2Vitamin‐D3. B) urinary deoxypyridinoline (DpD)/Cre. C) serum FGF23. […]

Where no end group is shown, it is not given here.

On to “AVAEIQLMHQRAKWLNSMERVEWLRKKLQDIHTAEI [M‐PTH(1‐30)/PTHrP(31‐36)]”, for which the IC50 was determined as 0.21 ± 0.03 nM in series [1] and 2.98 ± 0.48 nM in series [2]. Besides, at human PTHR1, the Emax was determined as 106 ± 4%.
In the case of “AVAEIQLMHQRAKWLNSMRRRFFLHHLIAEIHTAEI [M‐PTH(1‐18)/PTHrP(19‐36)]”, the 50% inhibitory concentration (IC50) in series [1] worked out at 0.13 ± 0.02 nM; in series [2], 1.66 ± 0.22 nM. The Emax at human PTHR1 is 107 ± 5%.
Regarding `C=C1/C(=C\C=C2/CCC[C@]3(C)[C@@H]([C@H](C)CCCC(C)C)CC[C@@H]23)C[C@@H](O)C[C@@H]1O` [alfacalcidol, 1α‐hydroxycholecalciferol], in series [3] (M‐PTH/PTHrP at 4.0 and 8.0 nmol/kg s.c., alfacalcidol at 0.2 μg/kg oral, daily, ELISA), the “Serum levels of FGF23” value is listed as “significantly increased”. In addition, the sCa levels result in series [3] (daily oral 0.2 μg/kg) is on record as “comparable to those of the sham group”. Besides, the uCa excretion entry in series [3] (daily oral 0.2 μg/kg, 0‐ to 8‐ and 8‐ to 24‐hour intervals) is “high uCa excretion levels”. Moreover, in series [3] (daily oral, especially at the 0.2 μg/kg dose), the sPi levels entry was “normalized sPi levels”.
With “AVAEIQLMHQRAKWLNSMERVEFLHHLIAEIHTAEI [M‐PTH(1‐22)/PTHrP(23‐36)]”, the values for the IC50 in series [1] and in series [2] were 0.67 ± 0.02 nM and 7.8 ± 2.55 nM, respectively. Besides, the Emax on human PTHR1 worked out at 104 ± 4%.
In the same order, the values of “AVAEIQLMHQRAKWLNSLRRRFFLHHLIAEIHTAEI [M‐PTH(1‐17)/PTHrP(18‐36)]” are 0.23 ± 0.02 nM, 1.91 ± 0.39 nM and 105 ± 5%.
In the same order, the values of “AVAEIQLMHQRAKWLNSMERVEWLRKLIAEIHTAEI [M‐PTH(1‐26)/PTHrP(27‐36)]” are 0.13 ± 0.04 nM, 1.73 ± 0.75 nM and 106 ± 5%.
On to “AVAEIQLMHQRGKSIQDLRRRFFLHHLIAEIHTAEI [M‐PTH(1‐11)/PTHrP(12‐36)]”, for which the IC50 was determined as 0.55 ± 0.15 nM in series [1] and 2.14 ± 0.47 nM in series [2]. The compound further displayed an Emax at human PTHR1 of 103 ± 3%.

The IC50 is the concentration that gives 50% inhibition. Read a low IC50 as inhibition by little substance. As usually defined, the Emax is the maximal effect, on the per cent scale that the assay sets.

Source of the values: PMC7340446, “Optimization of PTH/PTHrP Hybrid Peptides to Derive a Long‐Acting PTH Analog (LA‐PTH)” (JBMR Plus, 2020).
